Among the test systems are SK-MEL-28; SK-MEL-2; OVCAR-8; CCRF-CEM; EKVX; SF-295; RXF 393; CAKI-1; NCI-H23; K562; RPMI-8226; HCT-15; UACC-62; NCI-H522; OVCAR-4; A498.
Common to all, as to experiment: DTP human tumour cell line panel, 48 h

15 compounds from ChEMBL document CHEMBL1201862, “PubChem BioAssay data set” (2004) can be followed below.

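Cells were grown in 96-well plates and exposed to each compound for 48 hours at five concentrations; endpoints were interpolated linearly between bracketing concentrations, or set to the highest concentration if not reached. The concentration for 50% growth inhibition is given as GI50.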 Activity calls are given as the source filed them. Cut-off read from the data, not from the text of the source: active = GI50 up to about 1.1 µM and inactive = higher.

Usually GI50 stands for the concentration that inhibits growth by half. For `CC(=O)O/N=C/c1cc2c(cc1Br)OCO2`, the GI50 was > 349 µM (inactive) with SK-MEL-28; > 349 µM (inactive) in the test on SK-MEL-2; > 349 µM (inactive) in the test on OVCAR-8; > 349 µM (inactive) with CCRF-CEM; > 349 µM (inactive) with EKVX; 291 µM (inactive) with SF-295. The GI50 was > 349 µM (inactive) in the test with RXF 393; > 349 µM (inactive) with CAKI-1; > 349 µM (inactive) in the test with NCI-H23; > 349 µM (inactive) with K562; > 349 µM (inactive) in the test on RPMI-8226; > 349 µM with HCT-15. The GI50 in the test with UACC-62 was > 349 µM (inactive); in the test with NCI-H522, 185 µM (inactive).

Turning to `N#C/C(=N\c1ccccc1N(C(=O)c1ccccc1)C(=O)c1ccccc1)c1ccccc1`, the GI50 in the test with SK-MEL-28 is > 100 µM (inactive); in the test with SK-MEL-2 it was 42.1 µM (inactive); with OVCAR-8 it was 10.3 µM (inactive); in the test with OVCAR-4 it was 32.2 µM (inactive); in the test with CCRF-CEM it was 2.25 µM (inactive); in the test with EKVX, > 100 µM (inactive). Besides, the GI50 was 8.89 µM (inactive) in the test with SF-295; 47.6 µM (inactive) in the test with CAKI-1; > 62.5 µM (inactive) with NCI-H23; 3.49 µM (inactive) in the test on K562; > 59.2 µM (inactive) in the test with A498; 5.97 µM (inactive) with RPMI-8226. Also, the GI50 with HCT-15 was 5.14 µM; with UACC-62, 35.9 µM (inactive); in the test on NCI-H522, 4.91 µM (inactive).

As for `O=C(O)CCSCCCN1C(=O)c2ccccc2C1=O`, the GI50 in the test with SK-MEL-28, with SK-MEL-2, with OVCAR-8, with OVCAR-4, in the test on EKVX and in the test on SF-295 was > 100 µM (inactive) in each case. Moreover, the GI50 with RXF 393 is > 100 µM (inactive); in the test on NCI-H23, > 100 µM (inactive); in the test on K562, > 100 µM (inactive); with RPMI-8226, > 100 µM (inactive); with HCT-15, > 100 µM; with UACC-62, > 100 µM (inactive).

Turning to `CCCCCCCC(=O)OCC(COC(=O)C(C)(C)C)OC(=O)Cc1ccccc1` (stereo not drawn), the GI50 in the test with SK-MEL-28, with OVCAR-8, in the test with OVCAR-4, in the test with CCRF-CEM, in the test on SF-295 and in the test on CAKI-1 was > 100 µM (inactive) throughout. Moreover, the GI50 in the test with NCI-H23 is > 100 µM (inactive); in the test on K562 it was > 100 µM (inactive); in the test with A498, > 100 µM (inactive); in the test on RPMI-8226, > 100 µM (inactive); with HCT-15, > 100 µM; in the test with UACC-62 it was > 100 µM (inactive).

In the case of `Cc1cc(Cl)ccc1NC(=O)C1C(=O)C(=O)N(c2ccc(Cl)cc2C)C1=O` (stereo not drawn), the GI50 was > 100 µM (inactive) in the test with SK-MEL-28; 89.9 µM (inactive) in the test on SK-MEL-2; 56.6 µM (inactive) with OVCAR-8; 38.6 µM (inactive) in the test with OVCAR-4; 55.6 µM (inactive) in the test with CCRF-CEM; 36.8 µM (inactive) with EKVX. Further, the GI50 in the test with SF-295 is 95.5 µM (inactive); with CAKI-1, > 100 µM (inactive); in the test on NCI-H23 it was 74.5 µM (inactive); in the test with K562, 40.6 µM (inactive); in the test on A498, > 100 µM (inactive); in the test with RPMI-8226, 29 µM (inactive). The GI50 in the test on HCT-15 was 57.5 µM; in the test on UACC-62 it was 63.2 µM (inactive); in the test on NCI-H522, 60.3 µM (inactive).

Regarding `CCCCCCCC/C=C\CCCCCCCC(=O)NCCN(CCN)C(=O)CCCCCCC/C=C\CCCCCCCC`, the GI50 with SK-MEL-28 is > 100 µM (inactive); in the test with OVCAR-8 it was > 100 µM (inactive); with OVCAR-4, > 100 µM (inactive); in the test on CCRF-CEM it was > 100 µM (inactive); with SF-295 it was > 100 µM (inactive); in the test on CAKI-1, 51.5 µM (inactive). For the same compound, the GI50 was > 100 µM (inactive) with NCI-H23; > 100 µM (inactive) in the test on K562; > 100 µM (inactive) in the test with A498; > 100 µM (inactive) with RPMI-8226; > 100 µM with HCT-15; > 100 µM (inactive) in the test on UACC-62.

For the compound `CCCCCCCCOCC(O)COC(C)C` (stereo not drawn), the GI50 in the test with SK-MEL-28 was > 100 µM (inactive); with OVCAR-8 it was 70 µM (inactive); with OVCAR-4, 41.4 µM (inactive); in the test with CCRF-CEM it was 20.9 µM (inactive); in the test on SF-295, 58.7 µM (inactive); in the test on CAKI-1, 43.1 µM (inactive). For the same compound, the GI50 was 25.7 µM (inactive) with NCI-H23; 28.1 µM (inactive) with K562; 68.9 µM (inactive) in the test with A498; 22.8 µM (inactive) in the test with RPMI-8226; 27.4 µM in the test on HCT-15; 91.4 µM (inactive) with UACC-62.

For `CCC12CCCNC1c1c(n(C)c3ccccc13)C(C(=O)OC)C2` (stereo not drawn), the GI50 in the test with SK-MEL-28 is 100 µM (inactive); with SK-MEL-2, 62.2 µM (inactive); in the test with OVCAR-8, 88.3 µM (inactive); in the test with CCRF-CEM, 85.1 µM (inactive); in the test with EKVX, 79.3 µM (inactive); in the test on SF-295, 50.4 µM (inactive). The GI50 is 36.5 µM (inactive) with RXF 393; 32.8 µM (inactive) in the test on CAKI-1; 51.6 µM (inactive) in the test with NCI-H23; 67.9 µM (inactive) in the test with K562; 9.4 µM (inactive) with RPMI-8226; 81.1 µM in the test with HCT-15. The results for the GI50 with UACC-62 and in the test on NCI-H522 were 56.8 µM (inactive) and 8.02 µM (inactive), respectively.

For `CC(=O)O[C@H]1CC[C@@]2(C)C(=CC[C@@H]3C2CC[C@]2(C)Nc4c(cnn4-c4ccccc4)CC32)C1` (stereo partly drawn), the GI50 was 10.4 µM (inactive) in the test with SK-MEL-28; 54.6 µM (inactive) in the test with SK-MEL-2; 29.4 µM (inactive) in the test on OVCAR-8; 14.9 µM (inactive) with OVCAR-4; 5.51 µM (inactive) in the test on CCRF-CEM; 44.6 µM (inactive) in the test with EKVX. Moreover, the GI50 with SF-295 is 2.69 µM (inactive); with RXF 393, 3.53 µM (inactive); in the test on CAKI-1, 15.3 µM (inactive); in the test with NCI-H23 it was 28.2 µM (inactive); in the test with A498, 10.6 µM (inactive); in the test with RPMI-8226, 2.09 µM (inactive). The concentration for 50% growth inhibition (GI50) in the test on HCT-15 was 10.4 µM; in the test on UACC-62, 18.7 µM (inactive).

As for `COc1c2c(c3c(c1C1OC(C)[C@@H](C)O1)CC(C)(C)O3)C(=O)c1ccccc1C2=O` (stereo partly drawn), the GI50 with SK-MEL-28 is 55.3 µM (inactive); with SK-MEL-2, > 100 µM (inactive); in the test with OVCAR-8, 34.3 µM (inactive); in the test with OVCAR-4, 42 µM (inactive); with CCRF-CEM it was 20.8 µM (inactive); with EKVX it was > 100 µM (inactive). In addition, the GI50 in the test with SF-295 was 65.2 µM (inactive); with RXF 393, 28 µM (inactive); in the test with CAKI-1 it was 40.2 µM (inactive); with NCI-H23, 48.2 µM (inactive); with K562, 25.4 µM (inactive); in the test on RPMI-8226, 20.6 µM (inactive). Moreover, the concentration for 50% growth inhibition (GI50) in the test on HCT-15 was 43.1 µM; in the test with UACC-62, 34.9 µM (inactive); with NCI-H522, > 10 µM (inactive).

For the compound `CCOc1ccc2c(c1)[n+]([O-])c(-c1ccccc1Cl)c(N)[n+]2[O-]`, the GI50 in the test on SK-MEL-28 is > 100 µM (inactive); in the test with SK-MEL-2, > 100 µM (inactive); with OVCAR-8, > 100 µM (inactive); with OVCAR-4, > 100 µM (inactive); in the test with CCRF-CEM, 48.2 µM (inactive); with EKVX, > 100 µM (inactive). Further, the GI50 in the test with SF-295, in the test with RXF 393, in the test on CAKI-1, with NCI-H23, with K562 and in the test with A498 was > 100 µM (inactive) each time. Moreover, the GI50 with NCI-H522 is 17.4 µM (inactive).

For `COc1cc2c3c(c1OC)-c1ccccc1C(C(O)c1ccccc1)C3N(C)CC2` (stereo not drawn), the GI50 with SK-MEL-28 is 16.4 µM (inactive); in the test with SK-MEL-2 it was 28.1 µM (inactive); with OVCAR-8 it was 69.3 µM (inactive); in the test on CCRF-CEM it was 26.2 µM (inactive); in the test with EKVX, 90.4 µM (inactive); in the test on SF-295 it was 44.5 µM (inactive). In addition, the GI50 in the test with RXF 393 is 12.4 µM (inactive); with NCI-H23, 85.5 µM (inactive); in the test with K562, 25.9 µM (inactive); in the test with RPMI-8226 it was 21.9 µM (inactive); in the test with HCT-15, 25.4 µM; in the test with UACC-62, 7.76 µM (inactive). In addition, the GI50 with NCI-H522 is 18.2 µM (inactive).

Turning to `O=C1NC2C=CN(Cc3ccccc3)C=C2C(=O)N2CCCC12` (stereo not drawn), the GI50 in the test with SK-MEL-28, in the test on SK-MEL-2, in the test on OVCAR-8, in the test with OVCAR-4, with CCRF-CEM and in the test with EKVX was > 100 µM (inactive) in each case. For the same compound, the GI50 with SF-295 is > 100 µM (inactive); in the test on RXF 393, > 100 µM (inactive); with CAKI-1, > 100 µM (inactive); with NCI-H23, > 100 µM (inactive); with A498, > 100 µM (inactive); in the test on HCT-15, > 100 µM. Moreover, the GI50 in the test on UACC-62 and in the test with NCI-H522 was > 100 µM (inactive) throughout.

Consider `C=C1c2ccccc2N(S(=O)(=O)c2ccc(C)cc2)C12CCCCC2`, for which the GI50 with SK-MEL-28 was 45.2 µM (inactive); with SK-MEL-2, 52.6 µM (inactive); in the test with OVCAR-8 it was > 100 µM (inactive); with OVCAR-4, 53.1 µM (inactive); in the test with CCRF-CEM, 25.2 µM (inactive); in the test on EKVX, > 100 µM (inactive). Also, the GI50 in the test with SF-295 is 74.5 µM (inactive); in the test on RXF 393 it was 45.6 µM (inactive); in the test on NCI-H23, 25.3 µM (inactive); in the test with K562, 29 µM (inactive); in the test on RPMI-8226, 24.4 µM (inactive); with HCT-15, > 100 µM. Moreover, the figures for the GI50 in the test on UACC-62 and in the test on NCI-H522 were 62.2 µM (inactive) and 34.8 µM (inactive), respectively.

In the case of `O=C(O)c1c2c(cc3c(=O)cc(-c4ccccc4)oc13)CCCC2`, the GI50 with SK-MEL-28, with SK-MEL-2, with OVCAR-8, with OVCAR-4, in the test with CCRF-CEM and in the test with EKVX was > 100 µM (inactive) in each case. For the same compound, the GI50 in the test on SF-295 is > 100 µM (inactive); with NCI-H23 it was > 100 µM (inactive); in the test with K562, > 100 µM (inactive); with A498 it was > 100 µM (inactive); in the test on RPMI-8226 it was > 100 µM (inactive); in the test on HCT-15, > 100 µM. Further, the GI50 in the test with UACC-62 was > 100 µM (inactive); in the test on NCI-H522, 71.4 µM (inactive).
